Measurements from PubChem BioAssay (NCI).
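96-well plates; 48 h exposure; 5 concentrations. Endpoints by linear interpolation between flanking doses. Not reached: highest tested concentration assigned. GI50: concentration for 50% inhibition of growth. TGI denotes the concentration required for complete inhibition of growth.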

What was measured:
Test in all cases: NCI anticancer screen, dose series, 48 h
HOP-92 NSCLC = system: HOP-92 NSCLC
CAKI-1 renal = system: CAKI-1 renal
RPMI-8226 leukemia = system: RPMI-8226 leukemia
OVCAR-5 ovarian = system: OVCAR-5 ovarian
A549 NSCLC = system: A549 NSCLC
SK-MEL-2 melanoma = system: SK-MEL-2 melanoma
OVCAR-8 ovarian = system: OVCAR-8 ovarian
PC-3 prostate = system: PC-3 prostate
MCF7 breast = system: MCF7 breast
BT-549 breast = system: BT-549 breast

| Compound | TGI (HOP-92 NSCLC) [µM] | TGI (CAKI-1 renal) [µM] | TGI (RPMI-8226 leukemia) [µM] | TGI (OVCAR-5 ovarian) [µM] | TGI (A549 NSCLC) [µM] | TGI (SK-MEL-2 melanoma) [µM] | TGI (OVCAR-8 ovarian) [µM] | GI50 (CAKI-1 renal) [µM] | GI50 (OVCAR-5 ovarian) [µM] | GI50 (PC-3 prostate) [µM] | TGI (PC-3 prostate) [µM] | GI50 (A549 NSCLC) [µM] | GI50 (MCF7 breast) [µM] | TGI (MCF7 breast) [µM] | GI50 (SK-MEL-2 melanoma) [µM] | GI50 (OVCAR-8 ovarian) [µM] | GI50 (HOP-92 NSCLC) [µM] | GI50 (BT-549 breast) [µM] | TGI (BT-549 breast) [µM] | GI50 (RPMI-8226 leukemia) [µM] |
| --- | --- | --- | --- | --- | --- | --- | --- | --- | --- | --- | --- | --- | --- | --- | --- | --- | --- | --- | --- | --- |
| CC(=O)OC(C)(C)C[N+](=O)[O-] | > 100 | > 100 | > 100 | > 100 | > 100 | > 100 | > 100 |  |  |  |  |  |  |  |  |  |  |  |  |  |
| CC1(C)C=C(N2CCN(C3=CC(C)(C)NC(C)(C)C3)CC2)CC(C)(C)N1 | > 100 | > 100 | > 100 | > 100 | > 100 |  | > 100 |  |  |  |  |  |  |  |  |  |  |  |  |  |
| CC(O)(c1ccc(OCCC[N+](C)(C)C)cc1)C(C)(O)c1ccc(OCCC[N+](C)(C)C)cc1 (stereo not given) | > 100 | > 100 |  | > 100 | > 100 | > 100 | > 100 |  |  |  |  |  |  |  |  |  |  |  |  |  |
| CCC1=CCC(P(=O)(c2ccccc2)c2ccccc2)CC1C (stereo not given) | 71.6 | > 100 | 52.9 | > 100 | > 100 | 83.5 | > 100 |  |  |  |  |  |  |  |  |  |  |  |  |  |
| CCN(CC)CCCNc1nccc2c(C)c3[nH]c4ccncc4c(=O)c3cc12 | 7.64 | 16.8 | 13.7 | 19.7 | 14.2 | 9.34 | 2.36 |  |  |  |  |  |  |  |  |  |  |  |  |  |
| CCCCCCCCC1C(C)c2c([nH]c3ccccc23)C2C(=O)N(c3ccccc3)C(=O)C21 (stereo not given) |  | 27.5 | 12.9 | 33.6 | 38 | 33.3 | 28.4 |  |  |  |  |  |  |  |  |  |  |  |  |  |
| Cc1cc(=O)n2c(cc3cccccc32)n1 |  | > 100 | > 100 | > 100 | > 100 | > 100 | > 100 |  |  |  |  |  |  |  |  |  |  |  |  |  |
| CCN(CC)CCNc1ccc(N=Nc2cnc3ccccc3c2)c2ccccc12 |  | 3.21 |  | 3.24 | 3.5 | 4.3 | 4.19 | 1.39 | 1.64 | 1.28 | 2.6 | 1.92 | 1.37 | 2.7 | 2.34 | 2.09 |  |  |  |  |
| C=C(C)C1CC=C(C)C(O)([C@@]2(O)C[C@H](C(=C)C)CC=C2C)C1 (stereo not given in full) | 40.6 | 51.8 | 48.7 | 63.5 | > 100 | 35.9 | 35.5 |  |  |  |  |  |  |  |  |  |  |  |  |  |
| O=C(O)C1C2C=CC(O2)C1C(=O)NCc1ccncc1 (stereo not given) | > 100 | > 100 | > 100 | > 100 | > 100 | > 100 | > 100 |  |  |  | > 100 |  |  | > 100 |  |  |  |  |  |  |
| c1ccc(N2CCN(CCCN3CCc4c([nH]c5ccccc45)C3c3cccnc3)CC2)cc1 (stereo not given) | > 100 | > 100 | > 100 | > 100 | > 100 | > 100 | > 100 |  |  |  |  |  |  |  |  |  |  |  |  |  |
| Cc1nccc2c3ccc(OCc4cn(-c5ccc(Br)cc5)nn4)cc3n(CCCc3ccccc3)c12 | > 100 |  |  | 6.72 |  | > 100 | 5.09 |  | 2.15 | 3.42 | > 100 |  | 3.09 | > 100 | > 100 | 2.12 | 47.4 | 2.47 | 7.48 |  |
| CCCc1nn(C)c(CCC(=O)N(Cc2ccccc2)Cc2ccccc2)c1CC | > 100 |  | > 100 | > 100 | > 100 | > 100 | > 100 |  |  |  |  |  |  |  |  |  |  |  |  |  |
| C=C1CCCC2OC(OC)CCC12 (stereo not given) | > 100 | > 100 | > 100 | > 100 | > 100 | > 100 | > 100 |  |  |  |  |  |  |  |  |  |  |  |  |  |
| CC1=C(C(=O)Nc2ccccc2C)C(c2ccccc2O)C(C(=O)Nc2ccccc2C)=C(C)N1 | > 100 | > 100 | 66.8 | 82.2 | > 100 | 35.3 | 40.2 |  |  |  |  |  |  |  |  |  |  |  |  |  |
| CCOC(=O)Nc1cc2c(c(N)n1)N=C(c1ccccc1)CN2 | 34.8 | 27.7 |  | 27.7 | 18.1 |  | > 100 |  |  | < 0.0001 | < 0.0001 | < 0.0001 | 0.0232 | 20.5 |  |  | < 0.0001 |  |  | < 0.0001 |
| O=C1C(c2ccccc2)=[N+]([O-])c2cc([N+](=O)[O-])ccc21 | 64.5 |  | 74 | > 100 | > 100 | > 100 | 32.6 |  |  |  |  |  |  |  |  |  |  |  |  |  |
| CCCCNP1(NCCCC)=NP(NCCCC)(NCCCC)=NP(NCCCC)(NCCCC)=NP(NCCCC)(NCCCC)=N1 | 0.917 | 36 |  | 9.81 | 4.03 | 3.51 | 17.4 | 9.3 | 1.61 | 0.24 | 12.4 | 0.593 | 0.356 | 3.52 | 0.922 | 1.98 | 0.0514 | 4.08 | 15.3 |  |
| COc1cc2c(cc1OC)-c1c(c3ccc([N+](=O)[O-])cc3c(=O)n1CCCN=[N+]=[N-])C2=O |  | 70.7 |  | > 100 | > 100 | > 100 | > 100 | 26.3 | > 100 |  |  | 56.6 | 0.556 | > 100 | > 100 | 40.9 |  | > 100 | > 100 |  |
| CC1OC(OC2C(O)C(OCCc3ccc(O)c(O)c3)OC(CO)C2OC(=O)/C=C/c2ccc(O)c(O)c2)C(O)C(O)C1O (stereo not given) | > 100 | > 100 | > 100 | 39 | > 100 | > 100 | > 100 | 40 | 19.6 | > 100 | > 100 | > 100 | 32.9 | > 100 | > 100 | > 100 | > 100 |  |  | 42.4 |
| O=C(CC1(O)C(=O)Nc2c(Cl)cc(Cl)cc21)c1ccc([N+](=O)[O-])cc1 (stereo not given) | 75.5 | > 100 | > 82.1 | > 100 | > 100 | > 100 | > 87.9 |  |  |  |  |  |  |  |  |  |  |  |  |  |
| Nc1nc(N)c(CCCCc2ccccc2)c(/C=C/c2ccc([N+](=O)[O-])cc2)n1 | 2.21 | 31.6 | 19 | 15.8 | 19.3 | 10.8 | 12.7 |  |  |  |  |  |  |  |  |  |  |  |  |  |
| COC(=O)/C(=N\Nc1nc(=S)[nH]n1N)C(C#N)c1ccc(Cl)cc1 (stereo not given) | > 100 | > 100 | > 100 | > 100 | > 100 | > 100 | > 100 |  |  |  |  |  |  |  |  |  |  |  |  |  |
